Measurements reported in patent US8802732B2, “Lycopene and resveratrol compositions for NK cell activation resulting in anti-neoplastic effect” (Hsiehs Biotech (Singapore) Pte Ltd, priority 2009, dated 2014).

Columns and labels:
NK cells = test: Cytotoxic activity of spleen NK cells from orally treated mice against B16 melanoma cells (LDH release); assay type: in vivo, Balb/c mice; conditions: oral daily for one week; lycopene 2 mg/day or resveratrol 4 mg/day
Description: NK cells were isolated from Balb/c mice spleen. Each group of mice were killed at day 7 post-feeding of lycopene/resveratrol. The spleens were excised and soaked in 75% ethanol for 5 min, and smeared gently on cell sieves. The single cells were collected by flushing the sieve with RPMI-1640 medium. The derived total spleen cells were isolated by centrifugation at 2000 rpm by placing the mixture on the top of lymphocyte separation solution for 25 min. The white-colored lymphocyte layer was recovered carefully, and washed twice with serum-free RPMI-1640 medium, counted and transferred into 6-well plates as the stock. The lymphocytes thus prepared contains 10-20% of NK cells, and used for NK cell assay [Ref. 18: Zhang (2006)].
The B16 melanoma was excised from a tumor-bearing C57 mouse, and soaked in Hank's medium for 30 min. The adipose and necrotic parts of the tumor were removed, and the tumor was cut into small pieces and treated with RPMI-1640 containing 0.1% type II […] at 4° C. for 12 h. […]
NK cells isolated from mice spleen were mixed with B16 melanoma cells at ratios of 25:1, 50:1 and 100:1, and incubated at 37° C. After 5 h, the lactate dehydrogenase (LDH) activities in 100 μl of culture media were measured as the cytolytic activity of NK cells. Cytotoxicity is calculated according to the following formula. […]

[1] = cited from earlier work

Structure (SMILES)	NK cytotoxicity change versus control (NK cells)	anti-oxidative activity, higher than vitamin E ([1]; relative to vitamin E) [folds]	anti-oxidative activity, higher than β-carotene ([1]; relative to β-carotene) [folds]
CC(C)=CCC/C(C)=C/C=C/C(C)=C/C=C/C(C)=C/C=C/C=C(C)/C=C/C=C(C)/C=C/C=C(\C)CCC=C(C)C [lycopene]	slight increase (not significantly)	100	3.2
Oc1ccc(C=Cc2cc(O)cc(O)c2)cc1 [resveratrol]	slight increase (not significantly)	–	–
